# According to article PMC5828182, “Inhibition of nuclear factor of activated T cells (NFAT) c3 activation attenuates acute lung injury and pulmonary edema in murine models of sepsis” (Oncotarget, 2018):
# Assays:
# [1] = tested on: NFAT dependent gene expression; settings: liver allograft patients, after 8–12 months; cited from earlier work
# [2] = tested on: NFAT; settings: cited from earlier work
# Excerpt: (§1) Research efforts to identify NFAT inhibitors span over the last two decades but so far none of them performed well in the clinical trials.
# [3] = tested on: NFATc3−/− and wild type mice, severe CLP sepsis; assay: survival after severe (lethal) CLP; assay type: in vivo, mouse
# Method: Figure 5 NFATc3^−/− mice show improved arterial Oxygen saturation and survival compared to wild type mice (A) NFATc3^−/− and wild type mice (N = 5) were injected with 15 mg/kg LPS i.p and the arterial oxygen saturation was measured using STARR Life Sciences Corp. Pulse Oximeter. (B–C) NFATc3^−/− and wild type mice (N = 5 sham control group; N = 10 CLP group) were subjected to severe CLP, maintained on regular or imipenem monohydrate supplemented water and the survival was monitored over a period of 96 h. A^* p ≤ 0.001 WT-LPS vs. WT-Control; ^** p ≤ 0.01 NFATc3^−/− LPS vs. WT-LPS.
# Cecal ligation puncture (CLP) sepsis models were established according to Cuenca et al.. In an anesthetized mouse, the cecum is exposed and ligated below ileo-cecal valve and two perforations were made across the cecum using 21G needle. The cecum is then compressed to express minute amount of fecal material. To establish moderate CLP sepsis the cecum was ligated at less than 1.0 cm from the distal end and for severe sepsis about 2.0 cm of the cecum from distal end was ligated. Pulmonary edema, arterial oxygenation, and inflammation were evaluated in moderate CLP sepsis models. […] LPS (15 mg/kg) or the same volume of normal saline was administered into intraperitoneal cavity of WT or NFATc3^−/− mice and arterial oxygenation was measured by pulse oximetry. […]
# [4] = tested on: diabetic db/db mice; settings: cited from earlier work
# [5] = tested on: islet allografts between BL/6 and C3H/HeN mouse strains; settings: BL/6 and C3H/HeN mice; cited from earlier work
# [6] = tested on: experimental colitis model in mice; settings: cited from earlier work
# [7] = tested on: mouse models of Alzheimer's disease; settings: mice; cited from earlier work
# [8] = tested on: calcineurin; settings: derivative of cyclosporine; cited from earlier work
# Excerpt: as §1
# [9] = tested on: plaque psoriasis; settings: cited from earlier work
# Excerpt: as §1
compound,measurement,setting,value
C=CC[C@@H]1/C=C(\C)C[C@H](C)C[C@H](OC)[C@H]2O[C@@](O)(C(=O)C(=O)N3CCCC[C@H]3C(=O)O[C@H](/C(C)=C/[C@@H]3CC[C@@H](O)[C@H](OC)C3)[C@H](C)[C@@H](O)CC1=O)[C@H](C)C[C@@H]2OC [Tacrolimus],NFAT dependent gene expression,[1],increased NFAT dependent gene expression
Cc1cc2c(C(C)C)c(O)c(O)c(C=O)c2c(O)c1-c1c(C)cc2c(C(C)C)c(O)c(O)c(C=O)c2c1O [gossypol],NFAT inhibition,[2],variable degree of NFAT inhibition
COc1cc(C[C@H]2C(=O)OC[C@@H]2Cc2ccc(OC)c(OC)c2)ccc1O [Arctigenin],NFAT inhibition,[2],variable degree of NFAT inhibition
"C[C@@H](O)[C@H]1C(=O)N2C(C(=O)O)=C(SCCN=CN)C[C@H]12 [imipenem, imipenem monohydrate]",survival,"[3]; NFATc3−/− mice, imipenem in drinking water, monitored over 96 h, N = 10 CLP group",60%
same,lethality / survival of WT mice,"[3]; WT mice, imipenem (broad-spectrum antibiotic) in drinking water, 96 h",not improved any further
11R-VIVIT,albuminuria,[4],markedly attenuates
same,mesangial matrix expansion and podocyte injury,[4],alleviated
same,immunosuppression in islet allografts,[5],improved immunosuppression
same,effect in experimental colitis,[6],protective effect
same,microgliosis and Amyloid β peptide (Aβ) plaque load,[7],attenuated
O=c1c(O)c(-c2ccc(O)cc2)oc2cc(O)cc(O)c12 [kaempferol],NFAT inhibition,[2],variable degree of NFAT inhibition
C=C/C=C/C[C@@H](C)[C@@H](O)[C@H]1C(=O)N[C@@H](CC)C(=O)N(C)CC(=O)N(C)[C@@H](CC(C)C)C(=O)N[C@@H](C(C)C)C(=O)N(C)[C@@H](CC(C)C)C(=O)N[C@@H](C)C(=O)N[C@H](C)C(=O)N(C)[C@@H](CC(C)C)C(=O)N(C)[C@@H](CC(C)C)C(=O)N(C)[C@@H](C(C)C)C(=O)N1C [ISA247],calcineurin inhibition,[8],more potent and effectively inhibited Calcineurin
same,phase III outcome,[9],did not result in to any commercial products so far
